Results taken from patent US20180264146A1, “NOVEL IMAGING COMPOUNDS” (AC IMMUNE S.A., priority 2015, published 2018).

Columns and labels:
[1] = target: Tau in human Alzheimer disease brain homogenate (stage Braack V), [18F]-labeled Tau-Reference binder (Homo sapiens, UniProt P10636); experiment: Tau radio-binding competition assay; conditions: competition with [18F]-labeled Tau-Reference binder, human AD brain homogenate
Experimental: Tau Radio-Binding Competition Assay
20 μg of human Alzheimer disease brain homogenate (stage Braack V) was incubated with a dilution series of each test compound (1000 to 0.06 nM) in the presence of 800 Bq of [^18F]-labeled Tau-Reference binder. The samples were shaken at 110 rpm for 45 min at 37° C. Samples were then filtered through GF/B 96 well filter plates and two times washed with 300 μl assay buffer (PBS containing 0.1% BSA and 2% DMSO). Thereafter, filter plates were sealed and a Fuji Film Imaging Plate (BAS-SR2025) were placed on top. The imaging plate was analyzed the next day using a Fuji Film BAS-5000. Non-specific signal was determined with samples containing [^18F]-labeled Tau-Reference binder in the presence of assay buffer missing brain substrate and competitor. Specific binding was calculated by subtracting the non-specific signal from the measured sample signal. The unblocked [^18F]-labeled Tau-Reference binder signal was defined as total binding. IC50 values were calculated by Prism V6 (GraphPad) using total binding as 100%.

MAO-B human-recombinant = target: T1, MAO-B human-recombinant (Homo sapiens, UniProt P27338); experiment: MAO-B assay (MAO-Glo); format: biochemical; conditions: read-out: MAO B binding
T1 construct: purchased Sigma-Aldrich M7441
T1 sequence (P27338 1-520): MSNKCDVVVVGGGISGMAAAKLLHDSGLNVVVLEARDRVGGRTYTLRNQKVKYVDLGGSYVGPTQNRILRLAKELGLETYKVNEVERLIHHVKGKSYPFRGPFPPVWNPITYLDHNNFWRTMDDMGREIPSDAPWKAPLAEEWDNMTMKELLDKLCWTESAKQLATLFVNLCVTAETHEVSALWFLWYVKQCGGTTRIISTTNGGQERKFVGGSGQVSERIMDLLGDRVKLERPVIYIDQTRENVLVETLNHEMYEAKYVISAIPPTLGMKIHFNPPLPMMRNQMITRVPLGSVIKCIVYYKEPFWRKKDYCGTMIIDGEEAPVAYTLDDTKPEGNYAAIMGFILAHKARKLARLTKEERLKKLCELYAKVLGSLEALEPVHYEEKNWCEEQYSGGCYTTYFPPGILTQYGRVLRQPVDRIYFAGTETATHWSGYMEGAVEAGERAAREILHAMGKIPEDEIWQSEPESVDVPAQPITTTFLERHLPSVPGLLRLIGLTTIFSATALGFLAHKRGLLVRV
Experimental: Compounds were tested for their capacity to modulate MAO-B activity within the MAO-Glo™ Assay (Promega, Cat.# V1402). In each well of a 96-well plate, 12.5 μl of 4×MAO Substrate solution (end-concentration in assay: 4 μM) were mixed with 12.5 μl of a 4× solution of the corresponding test compound (end-concentrations ranged from 10 μM to 1.37 nM). In the absence of a test compound (i.e. to gauge the total MAO-B activity), the corresponding volume of MAO-B Reaction Buffer (100 mM HEPES (pH 7.5), 5% glycerol, 10% dimethyl sulphoxide) was added. To initiate the MAO reaction, 25 μl of 2×MAO-B enzyme solution (MAO-B human—recombinant, Sigma-Aldrich, Cat.# M7441; 1 μg MAO-B enzyme/25 μl MAO-B Reaction Buffer) were added per well and mixed briefly. For negative control reactions, 25 μl of MAO-B Reaction Buffer were added. Thereafter the plate was incubated at room temperature for 1 hour, following which, 50 μl of reconstituted Luciferin Detection Reagent were added per well and mixed briefly. The plate was then incubated at room temperature for 20 minutes to generate and stabilize the luminescent signal. The luminescent signal was subsequently measured and recorded on the TopCountNXT™ luminescence counter (PerkinElmer). Data were analyzed and graphs were prepared using the Graphpad Prism 6 software.

MAO-A human-recombinant = target: T2, MAO-A human-recombinant (Homo sapiens, UniProt P21397); experiment: Monoamine oxidase A (MAO-A) assay (MAO-Glo); format: biochemical; conditions: read-out: MAO A binding
T2 construct: purchased Sigma-Aldrich M7316
T2 sequence (P21397 1-527): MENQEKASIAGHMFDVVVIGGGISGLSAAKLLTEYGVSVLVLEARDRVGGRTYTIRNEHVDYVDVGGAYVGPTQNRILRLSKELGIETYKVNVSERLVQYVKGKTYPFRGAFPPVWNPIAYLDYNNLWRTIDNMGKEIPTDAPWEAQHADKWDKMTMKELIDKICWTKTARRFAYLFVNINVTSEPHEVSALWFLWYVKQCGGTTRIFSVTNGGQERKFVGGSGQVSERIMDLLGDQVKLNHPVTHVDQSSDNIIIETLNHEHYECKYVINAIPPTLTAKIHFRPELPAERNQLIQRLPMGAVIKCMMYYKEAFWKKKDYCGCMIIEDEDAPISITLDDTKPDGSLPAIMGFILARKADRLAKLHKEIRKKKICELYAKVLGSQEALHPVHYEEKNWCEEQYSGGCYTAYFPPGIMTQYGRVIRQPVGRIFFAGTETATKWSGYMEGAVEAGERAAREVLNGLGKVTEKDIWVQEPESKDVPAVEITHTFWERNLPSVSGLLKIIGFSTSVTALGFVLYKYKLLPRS
Experimental: Monoamine Oxidase A (MAO-A) Assay
Compounds were tested for their capacity to modulate MAO-A activity within the MAO-Glo™ Assay (Promega, Cat.# V1402). In each well of a 96-well plate, 12.5 μl of 4×MAO Substrate solution (end-concentration in assay: 40 μM) were mixed with 12.5 μl of a 4× solution of the corresponding test compound (end-concentrations ranged from 10 μM to 1.37 nM). In the absence of a test compound (i.e. to gauge the total MAO-A activity), the corresponding volume of MAO Reaction Buffer (100 mM HEPES (pH 7.5), 5% glycerol) was added. To initiate the MAO reaction, 25 μl of 2×MAO-A enzyme solution (MAO-A human-recombinant, Sigma-Aldrich, Cat.# M7316; 1 μg MAO-A enzyme/25 μl MAO Reaction Buffer) were added per well and mixed briefly. For negative control reactions, 25 μl of MAO Reaction Buffer were added. Thereafter the plate was incubated at room temperature for 1 hour, following which, 50 μl of reconstituted Luciferin Detection Reagent were added per well and mixed briefly. The plate was then incubated at room temperature for 20 minutes to generate and stabilize the luminescent signal. The luminescent signal was subsequently measured and recorded on the TopCountNXT™ luminescence counter (PerkinElmer). Data were analyzed and graphs were prepared using the Graphpad Prism 6 software.

Chain of Tau in human Alzheimer disease brain homogenate (stage Braack V), [18F]-labeled Tau-Reference binder (P10636 623-695 limits assumed): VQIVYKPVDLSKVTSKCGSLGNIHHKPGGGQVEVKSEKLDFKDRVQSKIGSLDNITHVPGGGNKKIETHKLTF

IC50 [1]	IC50 (MAO-B human-recombinant)	IC50 (MAO-A human-recombinant)	SMILES
6 nM	> 1000 nM	> 1000 nM	F[C@H]1CCN(c2ccc3c(n2)[nH]c2ccncc23)C1 [Example 1]
4 nM	> 1000 nM	> 6000 nM	FCCOC1CCN(c2ccc3c(n2)[nH]c2ccncc23)CC1 [Example 2]
6 nM	> 1000 nM	> 2000 nM	FCCOCCOC1CCN(c2ccc3c(n2)[nH]c2ccncc23)CC1 [Example 5]
7 nM	> 1000 nM	940 nM	F[C@@H]1CCN(c2ccc3c(n2)[nH]c2ccncc23)C1 [Example 6]
3 nM	> 1000 nM	–	OC(CF)COC1CCN(c2ccc3c(n2)[nH]c2ccncc23)CC1 (stereo not shown) [Example 7]
40 nM	> 1000 nM	940 nM	OC1(CF)CCN(c2ccc3c(n2)[nH]c2ccncc23)CC1 [Example 8]
13 nM	> 1000 nM	570 nM	FC1CC2(C1)CN(c1ccc3c(n1)[nH]c1ccncc13)C2 [Example 12]
16 nM	> 1000 nM	> 2000 nM	FCCOC1CC2(C1)CN(c1ccc3c(n1)[nH]c1ccncc13)C2 [Example 13]
2.3 nM	–	–	[2H]C([2H])(F)CCOC1CCN(c2ccc3c(n2)[nH]c2ccncc23)CC1 [Example 19]
1.5 nM	–	–	FCCOCCC1CCN(c2ccc3c(n2)[nH]c2ccncc23)CC1 [Example 21]
8 nM	–	–	FCC(F)COC1CCN(c2ccc3c(n2)[nH]c2ccncc23)CC1 (stereo not shown) [Example 24]
5.4 nM	–	1020 nM	F[C@@H]1CCCN(c2ccc3c(n2)[nH]c2ccncc23)C1 [Example 25]
16 nM	–	–	F[C@H]1CCCN(c2ccc3c(n2)[nH]c2ccncc23)C1 [Example 26]
3 nM	–	–	FC1CCN(c2ccc3c(n2)[nH]c2ccncc23)CC1 [Example 27]
5.2 nM	–	–	FC1CC2(CCN(c3ccc4c(n3)[nH]c3ccncc34)CC2)C1 [Example 28]
